Where two headings read alike, the source gives them in different places.
What was measured:
[1] = system: IMQ-induced psoriasis mouse model; test: IMQ-induced psoriasis-like skin inflammation mouse model; assay type: in vivo, BALB/c mice; details: intragastric once a day, 7 days
From the text: During treatment for 7 days, to score the severity of inflammation of mouse skin, an objective scoring system was developed based on the clinical psoriasis area and severity index. Erythema, scaling, and thickening were scored independently from 0 to 4 as follows: 0, none; 1, slight; 2, moderate; 3, marked; 4, very marked and weight loss. The cumulative score (erythema plus scaling plus thickening) served to indicate the severity of inflammation (scale 0 ∼ 12). On the 8th day, the mice were taken eyeball blood and back skin. One-half of the samples were immediately fixed in 4% paraformaldehyde and for haematoxylin and eosin (H&E) staining. The other samples were put in a −80 °C freezer. Before used, they were placed at room temperature for 30 min. After that, they were added 1 × PBS proportionally, homogenised and centrifuged. The supernatant was collected and used for ELISA assay and Western blot assay. […] The histological image was obtained using 3[sequence]’s Slide Converter (3[sequence], Hungary).

[2] = system: LPS-induced nitric oxide production in RAW264.7 cells; test: LPS-induced NO production, Griess Reagent assay; assay type: cell-based, mouse; details: for Inhibitory activity on LPS-induced NO secretion, in words: 10 µM; for IC50: LPS (0.5 μg/mL) 24 h; for Inhibition rate±SD (%) against NO production / inhibition at 10 µM: compounds 10 μM, 1 h, then LPS (0.5 μg/mL) 24 h; for inhibition at 10 µM: read-out: Inhibition rate±SD (%) against NO production
Method: RAW264.7 cells (7 × 10^4 cells/well) were seeded into 48-well plate and used for experiments after 24 h. […] After 24 h collect cell supernatant, NO production was measured using Griess Reagent assay (Beyotime). Griess reagent were mixed at a ratio of 1:1, and reacted at room temperature for 15 min. Measurement of absorbance at […] with enzyme reader. At least three independent experiments were performed for the determination of IC50 values, which were shown as mean ± SD. All experimental data were analysed by using GraphPad Prism software, version 8.0 (GraphPad Inc.).

[3] = system: RAW264.7 cells; test: Cell viability assay (MTT), RAW264.7; assay type: cell-based, mouse; details: 24 h, read-out: Cytotoxicity IC50 with RAW264.7
Method: (§1) RAW264.7 cells (1 × 10^4 cells/well) were seeded into 96-well plate and used for experiments after 24 h. Compounds (4 µM, 20 µM and 100 µM) treated cell for 24 h. Forty microliters of MTT solution (5 mg/mL, Sigma-Aldrich) was then added and incubated for an additional 4 h. After 4 h, cell culture supernatants were removed and DMSO (150 µL) was added into per well for dissolving the resulting crystals. Shaking about 1 0 ∼ 15 min and the absorbance at 492 nm was measured by a microplate reader (MQX200, Bio-Tek, Winooski, VT). At least three independent experiments were performed for the determination of IC50 values, which were shown as mean ± SD. All experimental data were analysed by using GraphPad Prism software, version 8.0 (GraphPad Inc.).

[4] = system: LO2 cells; test: Cell viability assay (MTT), LO2; assay type: cell-based; details: 24 h, read-out: Cytotoxicity IC50 with LO2
[5] = Cell viability assay (MTT), RAW264.7; assay type: cell-based, mouse; details: mouse, RAW264.7 cells, read-out: Cytotoxicity IC50 with RAW264.7
Method: as §1

[6] = Cell viability assay (MTT), LO2; assay type: cell-based; details: human, LO2 cells, read-out: Cytotoxicity IC50 with LO2
[7] = system: LPS-induced HaCaT cells; test: Hyperproliferation assay, LPS-stimulated HaCaT cells (MTT); assay type: cell-based, human; details: pre-treated 6 h, LPS 24 h
Method: HaCaT cells were seeded in 96-well plates and cultured at 37 °C in a humidified 5% CO2 atmosphere. When the cell confluency reached 60–70%, HaCaT cells were then starved in serum-free DMEM for 12 h before stimulated by 100 ng/mL LPS for 24 h to mimic hyperproliferative psoriatic keratinocytes. The cell viability was measured by MTT method. Results are expressed as the percentage survival of cells in the cell treated group and the untreated control group (without the tested compound and LPS).

[8] = molecular target: T1, TOPK (Homo sapiens, UniProt Q96KB5); set-up: method as in PMID 17276892; details: 100 µM; cited from earlier work
T1 construct: endogenous in cells
T1 sequence (Q96KB5 1-322): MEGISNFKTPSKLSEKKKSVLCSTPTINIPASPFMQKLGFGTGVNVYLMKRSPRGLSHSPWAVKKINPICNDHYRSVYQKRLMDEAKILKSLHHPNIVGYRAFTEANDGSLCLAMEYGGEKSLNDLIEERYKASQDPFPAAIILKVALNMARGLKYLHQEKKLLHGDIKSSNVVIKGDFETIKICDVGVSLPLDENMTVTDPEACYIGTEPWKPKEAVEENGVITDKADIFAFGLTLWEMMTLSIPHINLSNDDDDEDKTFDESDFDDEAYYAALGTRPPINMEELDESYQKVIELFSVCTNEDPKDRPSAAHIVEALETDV

[9] = molecular target: T1, TOPK; set-up: method as in earlier work; details: ref 16/17; cited from earlier work
[10] = molecular target: T1, TOPK; set-up: method as in PMID 28404919; details: time- and dose-dependent, in vitro and in vivo; cited from earlier work
[11] = cited from earlier work
[12] = Human liver microsomes stability assay in vitro; assay type: in vitro ADME
Method: The livers were homogenised initially in a Tris (0.1 M)/KCl (0.1 M)/EDTA (1 mM)/butylated sodium hydroxytoluene (BHT) (0.02 mM) buffer. Add 1.5 µL control/test compound B12 working solution to 238.5 µL liver microsome working solution, gently mix. Pre-incubate at 37 °C for 5 min. Start the reaction by adding 60 µL NADPH working solution. Mix by pipetting up and down. At each time point: 0, 5, 15, 30 and 60 min, remove 30 µL of reaction mixture to 300 µL of quenching solution. Vortex vigorously for ∼1 min and centrifuge at 4000 rpm at 4 °C for 15 min. Remove 100 µL of the supernatant and mixed with 100 µL distilled water for LC-MS/MS analysis.

Molecule	Inhibitory activity on LPS-induced NO secretion, in words [2]	IC50 [2]	Inhibition rate±SD (%) against NO production [2]	IC50 [3]	IC50 [4]	IC50 ([2]; Mus musculus)	inhibition at 10 µM ([2]; Mus musculus)	IC50 at 24 h [5]	IC50 at 24 h [6]	melting point	also measured
C[C@@H]1C[C@H]2[C@@H]3CCC4=CC(=O)C=C[C@]4(C)[C@@]3(F)[C@@H](O)C[C@]2(C)[C@@]1(O)C(=O)CO [dexamethasone, reference compound]											Pathological reduction, H&E of skin tissue ([1]; 20 mg/kg): high pathological reduction; Experimental symptoms and PASI score ([1]; B12 20 and 40 mg/kg, Dex 20 mg/kg): significantly attenuated experimental symptoms and PASI score
1–(5-acetyl-2-methoxyphenyl)-3–(2-fluorophenyl) urea [Compound B7]	weak to moderate inhibitory activity	> 10 µM	15.69±4.15%	> 100 µM	> 100 µM						
COc1ccc(C(C)=O)c(O)c1 [Pae, paeonol]	weak potencies					> 10 µM	18.4 ± 1.84%	> 100 µM	> 100 µM		Excessive proliferation of LPS-induced HaCaT cells [7]: did not have this effect; Expression of TOPK [8]: inhibit the expression of TOPK; Affinity for TOPK (MST) [9]: confirmed the affinity of paeonol for TOPK; Phosphorylation levels of p38, JNKs, MSK1 and histone H2AX [10]: suppressed
1–(5-acetyl-2-methoxyphenyl)-3–(4-methoxyphenyl) urea [Compound B10]	moderate inhibitory activity	> 10 µM	5.03± 6.25%	> 100 µM	> 100 µM						
COc1cc(O)c(C(C)=O)cc1[N+](=O)[O-] [Compound 1]											Anti-inflammatory activity ([11]; reported by Huang): strong anti-inflammatory activity
1–(5-acetyl-2-methoxyphenyl)-3–(4-methylbenzyl) urea [Compound C3]		> 10 µM	30.23±4.56%	> 100 µM	> 100 µM						
COc1cc(O)c(C(C)=O)cc1N [Compound 2]											Anti-inflammatory activity ([11]; reported by Huang): strong anti-inflammatory activity
COc1ccc(C(C)=O)c(Oc2ccc(NC(=O)/C=C/c3cc(OC)c(OC)c(OC)c3)cc2)c1 [Compound 3]											Anti-inflammatory activity [11]: suitable anti-inflammatory activity
COc1ccc2c(c1)[C@]13CCCC[C@@H]1[C@H](C2)N(C)CC3 [Dextromethorphan, reference compound]											CLhep ([12]; human): 13.7 mL/min/kg; T1/2 ([12]; human liver microsomes): 39.5 min; microsomal CLint ([12]; human liver microsomes): 35.1 µL/min/mg
COc1ccccc1NC(=O)Nc1cc(C(C)=O)c(O)cc1OC [Compound B9, 1–(5-acetyl-4-hydroxy-2-methoxyphenyl)-3–(2-methoxyphenyl) urea]	weak to moderate inhibitory activity					6.88 µM	56.7 ± 4.28%	> 100 µM	> 100 µM	228 to 229 °C	
1–(5-acetyl-2-methoxyphenyl)-3–(4-fluorophenyl) urea [Compound B6]	moderate inhibitory activity	> 10 µM	24.15±6.18%	> 100 µM	> 100 µM						
1–(5-acetyl-2-methoxyphenyl)-3–(4-fluorobenzyl) urea [Compound C4]		> 10 µM	45.23±3.25%	> 100 µM	> 100 µM						
COc1cc(O)c(C(C)=O)cc1NC(=O)N(C(C)C)C(C)C [Compound A3, 3–(5-acetyl-4-hydroxy-2-methoxyphenyl)-1,1-diisopropylurea]						> 10 µM	15.4 ± 3.15%	> 100 µM	> 100 µM	148 to 149 °C	
COc1cc(O)c(C(C)=O)cc1NC(=O)N1CCCC1 [Compound A12, N-(5-acetyl-4-hydroxy-2-methoxyphenyl) pyrrolidine-1-carboxamide]						> 10 µM	32.1 ± 4.17%	> 100 µM	> 100 µM	118 to 120 °C	
COc1cc(O)c(C(C)=O)cc1NC(=O)N(C)C [Compound A7, 3–(5-acetyl-4-hydroxy-2-methoxyphenyl)-1,1-dimethylurea]						> 10 µM	33.7 ± 5.02%	> 100 µM	> 100 µM	176 to 177 °C	
COc1cc(O)c(C(C)=O)cc1NC(=O)NCc1ccccc1 [Compound C2, 1–(5-acetyl-4-hydroxy-2-methoxyphenyl)-3-benzylurea]						> 10 µM	7.86 ± 2.19%	> 100 µM	> 100 µM	194 to 195 °C	

— publication PMC8890542, “Discovery of novel paeonol-based derivatives against skin inflammation in vitro and in vivo” (Journal of Enzyme Inhibition and Medicinal Chemistry, 2022)
